Patent publication US11078170B2 (Assembly Biosciences, Inc., priority 2017, dated 2021)

system: HBV viral production from HepAD38 cells; assay: Activity of test compounds on viral production from HepAD38 cells (viral load by qPCR of HBV core sequence in supernatant); assay type: cell-based; settings: Hepatitis B virus, 120 h, 5 days incubation, HBV DNA in supernatant by qPCR, top concentration 10 μM, read-out: Viral Load EC50 Activity range
Procedure, shortened: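 EC50 and CC50 come from four-parameter fits of supernatant viral load and CellTiter-Glo viability, respectively. Viral load was measured by core-region TaqMan qPCR against HBV DNA standards and compared with DMSO controls. Tet-free HepAD38 cells (50,000/well, 2% FBS) were exposed to compound, highest 10 μM, for 5 days at 37° C.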

**Q.** With `CN1[C@H](C(=O)Nc2ccc(F)c(Cl)c2)C[C@H](c2ccc(OCC(=O)O)cc2)NS1(=O)=O` (relative stereo) [HBV-CSU-216-ISO-I, Cis-2-(4-(5-((3-Chloro-4-fluorophenyl)carbamoyl)-6-methyl-1,1-dioxido-1,2,6-thiadiazinan-3-yl)phenoxy)acetic acid] as the molecule, how does the EC50 read?
**A.** 1000 to 5000 nM

**Q.** Which EC50 does the source give for `CN1[C@H](C(=O)Nc2ccc(F)c(Cl)c2)C[C@H](c2cccc(F)c2)NS1(=O)=O` (relative stereo) [HBV-CSU-231-ISO-I, Cis-N-(3-Chloro-4-fluorophenyl)-5-(3-fluorophenyl)-2-methyl-1,2,6-thiadiazinane-3-carboxamide 1,1-dioxide] here?
**A.** < 1000 nM

**Q.** How did the EC50 turn out when `CN1[C@@H](C(=O)Nc2ccc(F)c(Cl)c2)C[C@@H](c2ccc(-c3cnn(C)c3)cc2)NS1(=O)=O` (relative stereo) [HBV-CSU-246-ISO-I, Cis-N-(3-Chloro-4-fluorophenyl)-2-methyl-5-(4-(1-methyl-1H-pyrazol-4-yl)phenyl)-1,2,6-thiadiazinane-3-carboxamide 1,1-dioxide] was run?
**A.** > 5000 nM

**Q.** For `CN1[C@H](C(=O)Nc2ccc(F)c(Cl)c2)C[C@H](c2ncc(-c3cncs3)s2)NS1(=O)=O` (relative stereo) [HBV-CSU-278-ISO-I, Cis-5-([5,5′-Bithiazol]-2-yl)-N-(3-chloro-4-fluorophenyl)-2-methyl-1,2,6-thiadiazinane-3-carboxamide 1,1-dioxide], which EC50 is on record?
**A.** < 1000 nM

**Q.** How did the EC50 turn out when `CN1[C@@H](C(=O)Nc2ccc(F)c(Cl)c2)C[C@@H](c2cc(-c3cncn3C)cs2)NS1(=O)=O` (relative stereo) [HBV-CSU-285-ISO-II, Cis-N-(3-Chloro-4-fluorophenyl)-2-methyl-5-(4-(1-methyl-1H-imidazol-5-yl)thiophen-2-yl)-1,2,6-thiadiazinane-3-carboxamide 1,1-dioxide] was run?
**A.** < 1000 nM

**Q.** How did the EC50 turn out when `CN1[C@H](C(=O)Nc2ccc(F)c(Cl)c2)C[C@H](c2cc(-c3ccnn3C)cs2)NS1(=O)=O` (relative stereo) [HBV-CSU-289-ISO-I, Cis-N-(3-chloro-4-fluorophenyl)-2-methyl-5-(4-(1-methyl-1H-pyrazol-5-yl)thiophen-2-yl)-1,2,6-thiadiazinane-3-carboxamide 1,1-dioxide] was run?
**A.** < 1000 nM

**Q.** `Cc1cc([C@H]2C[C@@H](C(=O)Nc3ccc(F)c(Cl)c3)N(C)S(=O)(=O)N2)sc1-c1cnn(C)c1` (relative stereo) [HBV-CSU-300-ISO-I, Cis-N-(3-Chloro-4-fluorophenyl)-5-(4-methyl-5-(1-methyl-1H-pyrazol-4-yl)thiophen-2-yl)-2-methyl-1,2,6-thiadiazinane-3-carboxamide 1,1-dioxide] was tested. Which EC50 did it give?
**A.** < 1000 nM

**Q.** `Cc1c(-c2csc([C@@H]3C[C@H](C(=O)Nc4ccc(F)c(Cl)c4)N(C)S(=O)(=O)N3)c2)cnn1C` (relative stereo) [HBV-CSU-315-ISO-II, Cis-N-(3-chloro-4-fluorophenyl)-5-(4-(1,5-dimethyl-1H-pyrazol-4-yl)thiophen-2-yl)-2-methyl-1,2,6-thiadiazinane-3-carboxamide 1,1-dioxide] was tested. Which EC50 did it give?
**A.** < 1000 nM

**Q.** How did the EC50 turn out when `Cc1nn(C)cc1-c1csc([C@@H]2C[C@H](C(=O)Nc3ccc(F)c(Cl)c3)N(C)S(=O)(=O)N2)c1` (relative stereo) [HBV-CSU-316-ISO-II, Cis-N-(3-chloro-4-fluorophenyl)-5-(4-(1,3-dimethyl-1H-pyrazol-4-yl)thiophen-2-yl)-2-methyl-1,2,6-thiadiazinane-3-carboxamide 1,1-dioxide] was run?
**A.** < 1000 nM

**Q.** `Cc1nn(C)c(C)c1-c1csc([C@@H]2C[C@H](C(=O)Nc3ccc(F)c(Cl)c3)N(C)S(=O)(=O)N2)c1` (relative stereo) [HBV-CSU-317-ISO-II, Cis-N-(3-chloro-4-fluorophenyl)-2-methyl-5-(4-(1,3,5-trimethyl-1H-pyrazol-4-yl)thiophen-2-yl)-1,2,6-thiadiazinane-3-carboxamide 1,1-dioxide] was tested. Which EC50 did it give?
**A.** < 1000 nM

**Q.** For `CN1[C@@H](C(=O)Nc2ccc(F)c(Cl)c2)C[C@@H](c2cc(-c3cnn(C(F)(F)F)c3)cs2)NS1(=O)=O` (relative stereo) [HBV-CSU-325-ISO-II, Cis-N-(3-Chloro-4-fluorophenyl)-2-methyl-5-(4-(1-(trifluoromethyl)-1H-pyrazol-4-yl)thiophen-2-yl)-1,2,6-thiadiazinane-3-carboxamide 1,1-dioxide], which EC50 is on record?
**A.** > 5000 nM

**Q.** With `[2H]C([2H])([2H])N1[C@@H](C(=O)Nc2ccc(F)c(Cl)c2)C[C@@H](c2ncc(-c3cn(C([2H])([2H])[2H])cn3)s2)NS1(=O)=O` (relative stereo) [HBV-CSU-337-ISO-II, Cis-N-(3-Chloro-4-fluorophenyl)-2-(methyl-d3)-5-(5-(1-(methyl-d3)-1H-imidazol-4-yl)thiazol-2-yl)-1,2,6-thiadiazinane-3-carboxamide 1,1-dioxide] as the molecule, how does the EC50 read?
**A.** 1000 to 5000 nM

**Q.** How did the EC50 turn out when `[2H]C([2H])([2H])N1[C@@H](C(=O)Nc2ccc(F)c(Cl)c2)C[C@@H](c2ncc(-c3cn(C)cn3)s2)NS1(=O)=O` (relative stereo) [HBV-CSU-338-ISO-II, Cis-N-(3-Chloro-4-fluorophenyl)-2-(methyl-d3)-5-(5-(1-methyl-1H-imidazol-4-yl)thiazol-2-yl)-1,2,6-thiadiazinane-3-carboxamide 1,1-dioxide] was run?
**A.** 1000 to 5000 nM

**Q.** Which EC50 does the source give for `CN1[C@@H](C(=O)Nc2ccc(F)c(Cl)c2)C[C@@H](c2ccc3c(c2)ncn3C)NS1(=O)=O` (relative stereo) [HBV-CSU-360-ISO-II, Cis-N-(3-chloro-4-fluorophenyl)-2-methyl-5-(1-methyl-1H-benzo[d]imidazol-5-yl)-1,2,6-thiadiazinane-3-carboxamide 1,1-dioxide] here?
**A.** < 1000 nM

**Q.** With `[2H]C([2H])([2H])N1[C@@H](C(=O)Nc2ccc(F)c(Cl)c2)C[C@@H](c2ccc(Br)s2)NS1(=O)=O` (relative stereo) [HBV-CSU-370-ISO-II, Cis-5-(5-bromothiophen-2-yl)-N-(3-chloro-4-fluorophenyl)-2-(methyl-d3)-1,2,6-thiadiazinane-3-carboxamide 1,1-dioxide] as the molecule, how does the EC50 read?
**A.** 1000 to 5000 nM

**Q.** Which EC50 does the source give for `CN1[C@H](C(=O)Nc2ccc(F)c(Cl)c2)C[C@H](c2ccc(C(F)(F)F)cc2)NS1(=O)=O` (stereo in doubt) [HBV-CSU-217-ISO-I, Cis-N-(3-Chloro-4-fluorophenyl)-2-methyl-5-(4-(trifluoromethyl)phenyl)-1,2,6-thiadiazinane-3-carboxamide 1,1-dioxide] here?
**A.** > 5000 nM

**Q.** How did the EC50 turn out when `CN1[C@@H](C(=O)Nc2ccc(F)c(Cl)c2)C[C@@H](c2ccc(C(F)(F)F)cc2)NS1(=O)=O` (stereo in doubt) [HBV-CSU-217-ISO-II, Cis-N-(3-Chloro-4-fluorophenyl)-2-methyl-5-(4-(trifluoromethyl)phenyl)-1,2,6-thiadiazinane-3-carboxamide 1,1-dioxide] was run?
**A.** < 1000 nM

**Q.** How did the EC50 turn out when `CN1[C@@H](C(=O)Nc2ccc(F)c(Cl)c2)C[C@@H](c2cc(-c3ccc(F)cn3)cs2)NS1(=O)=O` (stereo in doubt) [HBV-CSU-243-ISO-I, Cis-N-(3-chloro-4-fluorophenyl)-5-(4-(5-fluoropyridin-2-yl)thiophen-2-yl)-2-methyl-1,2,6-thiadiazinane-3-carboxamide 1,1-dioxide] was run?
**A.** > 5000 nM

**Q.** `CN1[C@H](C(=O)Nc2ccc(F)c(Cl)c2)C[C@H](c2cc(-c3ccc(F)cn3)cs2)NS1(=O)=O` (stereo in doubt) [HBV-CSU-243-ISO-II, Cis-N-(3-chloro-4-fluorophenyl)-5-(4-(5-fluoropyridin-2-yl)thiophen-2-yl)-2-methyl-1,2,6-thiadiazinane-3-carboxamide 1,1-dioxide] was tested. Which EC50 did it give?
**A.** < 1000 nM
